# Experimental data reported in patent US20170320939A1, “COLL2-1 PEPTIDE AND ITS NITRATED FORM AS THERAPEUTIC TARGETS FOR OSTEOARTHRITIS TREATMENT” (Université de Liège, priority 2014, published 2017).
# Experiments:
# [1] = test system: IL-6; test: IL-6 mRNA expression by Real Time PCR in OA synovial fibroblast cells; format: cell-based, human; details: increasing concentrations of peptide, 24 hours
# Protocol: 1.3 Treatment of synovial fibroblast cells. Cells were seeded into a six-well plate at the density of 2×10^5 cells/well in 2 ml of CM. When the cells reached confluence, the CM was replaced with 1% serum medium for 24 h to keep the cells quiescent. Cells were incubated for 24 hours with or without peptides Coll2-1 (^108HRGYPGLDG^116; 0.45 and 4.5 nmol) or Coll2-1NO2 (^108HRGYPGLDG-NO2^116; 4 and 40 pmol) at a range of concentrations found in the blood of osteoarthritic patients.
# 1.4 RNA extraction and Real Time Reverse Transcriptase-Polymerase Chain Reaction (RT PCR). Total RNA were extracted using the RNeasy Mini Kit (Qiagen, Netherlands) and were reverse transcribed with SuperScript III Reverse Transcriptase (Invitrogen, Belgium) according to the manufacturer's instructions. The cDNAs were quantified by real-time quantitative PCR using the Rotor Gene instrument (Qiagen, Venlo, Netherlands) and the SYBR Premix Ex Taq kit (Takara, Verviers, Belgium). The level of gene expression was determined by interpolation with a standard curve. To standardize mRNA levels, HPRT, a house keeping gene, was amplified as an internal control. […]
# [2] = test system: female Lewis rats; test: In-vivo study, S.C. injection compared to CIA (collagen induced arthritis) model; details: for arthritis visual score, difference versus saline (Group 7): D17
# Protocol: An in-vivo study was performed to evaluate the potential immunizing effect of Coll2-1 peptide. This effect was evaluated in comparison with two validated models of rheumatoid arthritis: CIA (Collagen induced arthritis) and SCW (Streptococcal cell walls). The peptide has been injected once subcutaneous, at the base of the tail (S.C.—evaluation of systemic inflammation) or intra-articular (I.A.—evaluation of mono-articular inflammation) in female Lewis rats. Naïve controls (saline) were considered. Animals were euthanized 21 or 28 days after injection.
# All animals (n=108 females; 96.0-129.7 gr) included in the study were identified by a unique chip. They were randomly distributed into 8 study groups (n=16/group except nave controls n=6/group, n=8/each time point) before induction (DO) based on their body weight (FIG. 1). • Injected controls (2 groups) • Group 1: bovin type II collagen (CIA)—S.C. (n=16) • Group 2: streptococcal cell wail (SCW)—I.A. (n=16) • Test groups (4 groups) • Group 3: Peptide dose 200 μg/100 μl—S.C. (n=16) • Group 4: Peptide dose 20 μg/100 μl—S.C. (n=16) • Group 5: Peptide dose 5 μg/50 μl—I.A. (n=16) • Group 6: Peptide dose 0.5 μg/50 μl—I.A. (n=16) • Naïve controls (2 groups) • Group 7: saline S.C. (n=6) • Group 8: saline I.A. (n=6)
# Two injection ways were chosen to evaluate the potential effect of the peptide: intra-articular (I.A.) and subcutaneous (S.C.), two route classically used in the art.
# Coll2-1 peptide was administered either I.A. under a 50 μL volume into the right knee or S.C. under a 100 μL volume at the base of the tail.
# SCW was administered I.A. into the right knee under a 50 μL volume. Bovine type II collagen (CIA) was administered under 100 μL volume at the base of the tail.
# Two doses of the Coll2-1 peptide were tested in both conditions.
# It was administered S.C. at 200 and 20 μg under 100 μL.
# Coll2-1 peptide was administered once (DO).
# Joint was considered arthritic when significant signs of redness and/or swelling was noted. Each paw was evaluated with a visual score (0-3) • 0: normal, no joint inflammation • 1: large joint inflammation • 2: medium joint inflammation • 3: small joint (distal) inflammation
# A set of 4 values were recorded on each evaluation day. The 4 values were summed for analysis.
# Right and left knees diameter were measured using a digital caliper.
# Animals were euthanized 21 or 28 days after injection (D0). They were anesthetized with a subcutaneous injection of a Ketamin/Medetomidine mix and further euthanized by exsanguination.
# Both entire knees from each animal were processed for histological analysis, They were decalcified in a HCl/EDTA mix (DC2, Qpath, VWR Belgium) for the appropriate time before inclusion in paraffin. Three frontal sections (5 μm) of each compartment were done 200 μm apart in the weight bearing zone using a microtome. Slides were stained according to a standard Safranin-O/Fast green protocol.
# Slides were evaluated under a light microscope. Each slide was score for: • Infiltration of inflammatory cells in synovial tissue (0-3) • Inflammatory cells in the joint cavity (exudate) (0-3) • Cartilage proteoglycan depletion (0-3) • Loss of articular cartilage (0-3) • Bone erosion (0-3).
# Infiltration of inflammatory cells in synovial tissue and inflammatory cells in the joint cavity were considered together (sum of the scores) as inflammatory parameters for the analysis of the detailed criteria.
# Statistical analysis was performed with the appropriate test using GraphPad. • Visual score and evaluations (knee diameter measurements) were analyzed with a two way ANOVA followed, if positive, by Tukey's multiple comparison test. Graphs represented the mean of each group at each evaluated time point. • Histological scores were analyzed with a Kruskal Wallis for non-parametric values followed, if positive, by a Dunn's multiple comparison test. Graphs presented as box and whisker plots. Exact p values were provided and asterisks representation were also performed.
sequence,measurement,setting,value
HRGYPGLDG [Coll2-1],IL-6 expression,[1],increased
same,inflammatory criteria (histology),"[2]; Coll2-1 20 μg S.C. (Gr4), 028",Significant increase
same,cartilage degradation criteria,"[2]; Coll2-1 20 μg S.C. (Gr4), D28",Significant increase
same,loss of matrix proteoglycan,"[2]; Coll2-1 20 μg S.C. (Gr4), D28",Significant increase
same,subchondral bone modification score,"[2]; Coll2-1 20 μg S.C. (Gr4), D28",Significant increase
same,"arthritis visual score, difference versus bovine type II collagen (Group 1)","[2]; Coll2-1 20 μg S.C. (Group 4), D21",statistically different
same,"global histological score, right and left knees together, versus saline (Group 7)","[2]; Coll2-1 20 μg S.C. (Group 4), D28",significant increase
same,"arthritis visual score, difference versus saline (Group 7)",[2]; Coll2-1 20 μg/100 μl S.C. (Group 4),statistically significant
same,inflammatory criteria (histology),"[2]; Coll2-1 200 μg S.C. (Gr3), D21",Significant increase
same,subchondral bone modification score,"[2]; Coll2-1 200 μg S.C. (Gr3), D21",Significant increase
same,cartilage degradation criteria,"[2]; Coll2-1 200 μg S.C. (Gr3), D28",Significant increase
same,loss of matrix proteoglycan,"[2]; Coll2-1 200 μg S.C. (Gr3), D28",Significant increase
same,"global histological score, right and left knees together, versus saline (Group 7)","[2]; Coll2-1 200 μg S.C. (Group 3), D21",significant increase
same,"arthritis visual score, difference versus saline (Group 7)",[2]; Coll2-1 200 μg/100 μl S.C. (Group 3),statistically significant
same,histological score (conclusion),"[2]; collagen arthritis model, S.C. injection",increase
same,arthritis visual score,"[2]; single S.C. injection at the base of the tail, four limbs, D0 to D28",induced an increase
